# Measurements as given in patent US11229618B2 (Amarin Pharmaceuticals Ireland Limited, priority 2012, dated 2022).
# Assay: Cross-study analysis of trough EPA concentrations in plasma and RBCs (Phase 1 PK, MARINE, ANCHOR)
# Type: in vivo, human
# Experimental: The objective of this Example is to examine the effects of high-purity ethyl eicosapentaenoate (“IPE”) on EPA concentrations in plasma and RBCs in response to dose and the relationship to triglyceride (“TG”) lowering across 3 clinical studies.
# MARINE and ANCHOR were 12-week, phase 3, double-blind studies that randomized patients to IPE 4 g/day, 2 g/day, or placebo. MARINE randomized 229 patients with TG≥500 and ≤2000 mg/dL while ANCHOR randomized 702 high-risk patients with TG≥200 and ≤500 mg/dL despite LDL-C control while on statin therapy. IPE 4 g/day and 2 g/day were also investigated in 48 healthy subjects for 4 weeks in a phase 1 pharmacokinetic (“PK”) study. […]
# In the MARINE and ANCHOR studies, the trough EPA concentrations were measured after 12 weeks of dosing with placebo, 2 g/day or 4 g/day IPE
# In the Phase 1 PK study, the trough EPA concentrations were measured after 28 days of dosing with 2 or 4 g/day IPE (there was no placebo group; a value of zero is used in plots as a point of reference)
# EPA concentrations were measured with a validated LC-MS/MS method in plasma and in RBCs in all 3 studies […]
# Quantitation utilized linolenic acid as an internal standard and EPA as the standard for the calibration curve; for total plasma EPA and total RBC EPA, the lower limits of quantitation were 10 μg/mL and 5 μg/mL, respectively
smiles,measurement,setting,value
"CC/C=C\C/C=C\C/C=C\C/C=C\C/C=C\CCCC(=O)OCC [IPE, all-cis eicosa-5,8,11,14,17-pentaenoic acid ethyl ester]",dose dependence of plasma and RBC EPA levels,"2 and 4 g/day groups, all 3 studies",linear with dose
same,"effect of demographic factors, baseline TG levels and concomitant medications on EPA concentrations in plasma and RBCs",MARINE and ANCHOR,did not affect the increase in EPA concentrations
